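Briefly, cells in 96-well plates were exposed to five compound concentrations for 48 h, and endpoints were estimated by linear interpolation. GI50 = concentration required for 50% inhibition of growth. TGI denotes the concentration required for complete inhibition of growth.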
Tests used:
Assay in all cases: NCI-60 cell line screen, 48 h
NCI-H23 lung = system: NCI-H23 lung
MCF7 breast = system: MCF7 breast
T-47D breast = system: T-47D breast
OVCAR-3 ovarian = system: OVCAR-3 ovarian
K-562 leukemia = system: K-562 leukemia
HT29 colon = system: HT29 colon
IGROV1 ovarian = system: IGROV1 ovarian
SK-MEL-2 melanoma = system: SK-MEL-2 melanoma
MDA-MB-231 breast = system: MDA-MB-231 breast
OVCAR-4 ovarian = system: OVCAR-4 ovarian
TK-10 renal = system: TK-10 renal
CAKI-1 renal = system: CAKI-1 renal
OVCAR-5 ovarian = system: OVCAR-5 ovarian
A549 NSCLC = system: A549 NSCLC
SF-295 CNS = system: SF-295 CNS
HOP-92 NSCLC = system: HOP-92 NSCLC
SNB-19 CNS = system: SNB-19 CNS
SW-620 colon = system: SW-620 colon
KM12 colon = system: KM12 colon
SR leukemia = system: SR leukemia
HOP-62 NSCLC = system: HOP-62 NSCLC
DU-145 prostate = system: DU-145 prostate
SN12C renal = system: SN12C renal
NCI-H460 lung = system: NCI-H460 lung
MDA-MB-435 = system: MDA-MB-435
HCC-2998 colon = system: HCC-2998 colon
CCRF-CEM leukemia = system: CCRF-CEM leukemia
SK-MEL-28 melanoma = system: SK-MEL-28 melanoma
HCT-116 colon = system: HCT-116 colon
RPMI-8226 leukemia = system: RPMI-8226 leukemia
U251 CNS = system: U251 CNS
NCI-H522 lung = system: NCI-H522 lung
NCI/ADR-RES ovarian = system: NCI/ADR-RES ovarian
PC-3 prostate = system: PC-3 prostate
OVCAR-8 ovarian = system: OVCAR-8 ovarian
HL-60(TB) leukemia = system: HL-60(TB) leukemia
UO-31 renal = system: UO-31 renal
COLO 205 colon = system: COLO 205 colon
LOX IMVI melanoma = system: LOX IMVI melanoma
RXF 393 renal = system: RXF 393 renal
HS 578T breast = system: HS 578T breast
BT-549 breast = system: BT-549 breast
SF-268 CNS = system: SF-268 CNS
SK-OV-3 ovarian = system: SK-OV-3 ovarian
SK-MEL-5 melanoma = system: SK-MEL-5 melanoma
MALME-3M melanoma = system: MALME-3M melanoma
ACHN renal = system: ACHN renal
HCT-15 colon = system: HCT-15 colon
MOLT-4 leukemia = system: MOLT-4 leukemia
M14 melanoma = system: M14 melanoma
UACC-62 melanoma = system: UACC-62 melanoma
EKVX NSCLC = system: EKVX NSCLC
UACC-257 melanoma = system: UACC-257 melanoma
NCI-H226 lung = system: NCI-H226 lung
SNB-75 CNS = system: SNB-75 CNS
SF-539 CNS = system: SF-539 CNS
786-0 renal = system: 786-0 renal

`COC(=O)[C@@]1(C)CC[C@]2(C)CC[C@]3(C)C4=CC=C5C(=CC(=O)C(O)=C5C)[C@]4(C)[C@@H](O)C[C@@]3(C)[C@@H]2C1` showed a GI50 (NCI-H23 lung) of 13.5 µM, a TGI (NCI-H23 lung) of 28.4 µM and a GI50 (MCF7 breast) of 11.3 µM. It also gave a TGI (MCF7 breast) of 23.9 µM, a GI50 (T-47D breast) of 3.04 µM and a TGI (T-47D breast) of 15.9 µM. The GI50 (OVCAR-3 ovarian) was 8.63 µM, the TGI (OVCAR-3 ovarian) was 18.5 µM and the GI50 (K-562 leukemia) was 4.25 µM. It also gave a TGI (K-562 leukemia) of 20.9 µM, a GI50 (HT29 colon) of 10.8 µM and a TGI (HT29 colon) of 23.1 µM. For the same compound, the GI50 (IGROV1 ovarian) was 6.73 µM, the TGI (IGROV1 ovarian) was 19.1 µM and the GI50 (SK-MEL-2 melanoma) was 11.2 µM. It also gave a TGI (SK-MEL-2 melanoma) of 23.2 µM, a GI50 (MDA-MB-231 breast) of 10.2 µM and a TGI (MDA-MB-231 breast) of 21.8 µM. The GI50 (OVCAR-4 ovarian) was 8.38 µM, the TGI (OVCAR-4 ovarian) was 19.7 µM and the GI50 (TK-10 renal) was 4.77 µM. It also gave a TGI (TK-10 renal) of 15.7 µM, a GI50 (CAKI-1 renal) of 3.94 µM and a TGI (CAKI-1 renal) of 13.9 µM. It also gave a GI50 (OVCAR-5 ovarian) of 12.9 µM, a TGI (OVCAR-5 ovarian) of 24.5 µM and a GI50 (A549 NSCLC) of 15.9 µM. For the same compound, the TGI (A549 NSCLC) was 30.1 µM, the GI50 (SF-295 CNS) was 13.2 µM and the TGI (SF-295 CNS) was 28.4 µM. For the same compound, the GI50 (HOP-92 NSCLC) was 11.6 µM, the TGI (HOP-92 NSCLC) was 23.2 µM and the GI50 (SNB-19 CNS) was 12.4 µM. The TGI (SNB-19 CNS) was 23.8 µM, the GI50 (SW-620 colon) was 9.27 µM and the TGI (SW-620 colon) was 20.2 µM. For the same compound, the GI50 (KM12 colon) was 13 µM, the TGI (KM12 colon) was 25.1 µM and the GI50 (SR leukemia) was 2690 nM. The TGI (SR leukemia) was 19 µM, the GI50 (HOP-62 NSCLC) was 13.3 µM and the TGI (HOP-62 NSCLC) was 25.9 µM. For the same compound, the GI50 (DU-145 prostate) was 12.3 µM, the TGI (DU-145 prostate) was 23.3 µM and the GI50 (SN12C renal) was 9.65 µM. It also gave a TGI (SN12C renal) of 20.7 µM, a GI50 (NCI-H460 lung) of 13.4 µM and a TGI (NCI-H460 lung) of 25.5 µM. For the same compound, the GI50 (MDA-MB-435) was 10.6 µM, the TGI (MDA-MB-435) was 21.5 µM and the GI50 (HCC-2998 colon) was 13 µM. For the same compound, the TGI (HCC-2998 colon) was 25.2 µM, the GI50 (CCRF-CEM leukemia) was 2730 nM and the TGI (CCRF-CEM leukemia) was 11.9 µM. It also gave a GI50 (SK-MEL-28 melanoma) of 9.43 µM, a TGI (SK-MEL-28 melanoma) of 19.7 µM and a GI50 (HCT-116 colon) of 3.67 µM. For the same compound, the TGI (HCT-116 colon) was 14.3 µM, the GI50 (RPMI-8226 leukemia) was 5.17 µM and the TGI (RPMI-8226 leukemia) was 27.7 µM. For the same compound, the GI50 (U251 CNS) was 8.71 µM, the TGI (U251 CNS) was 18.7 µM and the GI50 (NCI-H522 lung) was 8.39 µM. It also gave a TGI (NCI-H522 lung) of 20 µM, a GI50 (NCI/ADR-RES ovarian) of 15.3 µM and a TGI (NCI/ADR-RES ovarian) of 34.8 µM. The GI50 (PC-3 prostate) was 8.7 µM, the TGI (PC-3 prostate) was 19 µM and the GI50 (OVCAR-8 ovarian) was 14.8 µM. It also gave a TGI (OVCAR-8 ovarian) of 28.4 µM, a GI50 (HL-60(TB) leukemia) of 9.68 µM and a TGI (HL-60(TB) leukemia) of 28.9 µM. The GI50 (UO-31 renal) was 5.8 µM, the TGI (UO-31 renal) was 16.2 µM and the GI50 (COLO 205 colon) was 7.36 µM. It also gave a TGI (COLO 205 colon) of 22.2 µM, a GI50 (LOX IMVI melanoma) of 10.4 µM and a TGI (LOX IMVI melanoma) of 21.3 µM. The GI50 (RXF 393 renal) was 11.3 µM, the TGI (RXF 393 renal) was 22.9 µM and the GI50 (HS 578T breast) was 15.1 µM. For the same compound, the TGI (HS 578T breast) was 38 µM, the GI50 (BT-549 breast) was 10.5 µM and the TGI (BT-549 breast) was 22.3 µM. For the same compound, the GI50 (SF-268 CNS) was 9.62 µM, the TGI (SF-268 CNS) was 22.2 µM and the GI50 (SK-OV-3 ovarian) was 19.1 µM. The TGI (SK-OV-3 ovarian) was 42.2 µM, the GI50 (SK-MEL-5 melanoma) was 16.5 µM and the TGI (SK-MEL-5 melanoma) was 32.6 µM. It also gave a GI50 (MALME-3M melanoma) of 4.91 µM, a TGI (MALME-3M melanoma) of 16.2 µM and a GI50 (ACHN renal) of 3.8 µM. The TGI (ACHN renal) was 13.4 µM, the GI50 (HCT-15 colon) was 5.07 µM and the TGI (HCT-15 colon) was 17.7 µM. The GI50 (MOLT-4 leukemia) was 3.18 µM, the TGI (MOLT-4 leukemia) was 20.1 µM and the GI50 (M14 melanoma) was 9.74 µM. For the same compound, the TGI (M14 melanoma) was 22.2 µM, the GI50 (UACC-62 melanoma) was 8.59 µM and the TGI (UACC-62 melanoma) was 18.9 µM. It also gave a GI50 (EKVX NSCLC) of 12.9 µM, a TGI (EKVX NSCLC) of 25.2 µM and a GI50 (UACC-257 melanoma) of 10.1 µM. For the same compound, the TGI (UACC-257 melanoma) was 24.3 µM, the GI50 (NCI-H226 lung) was 13.9 µM and the TGI (NCI-H226 lung) was 24.9 µM. It also gave a GI50 (SNB-75 CNS) of 11.6 µM, a TGI (SNB-75 CNS) of 26 µM and a GI50 (SF-539 CNS) of 15.7 µM. It also gave a TGI (SF-539 CNS) of 28.8 µM, a GI50 (786-0 renal) of 1790 nM and a TGI (786-0 renal) of 5.23 µM.

Reference: PubChem BioAssay (NCI)
